This is an account of results in patent US9534008B2, “Small molecule compounds that control plant- and insect-pathogenic nematodes” (California Institute of Technology, priority 2011, dated 2017).

One assay relates to Panagrellus redivivus. Kind of assay: Ascaroside function (Table 12), Panagrellus redivivus. It is filed as in vivo. On the procedure:
(§1) Various ascarosides and ascaroside blends were administered to various nematodes described below (Table 12). […] A very strong result of affecting nematode behavior is designated in the table as “strong.”

For assay [1], the system named is several of the tested nematode species. Kind of assay: Retention assay, across species. In kind it is in vivo. Conditions: 1 nM, 1 μM and 1 mM tested. On the procedure:
OP50 E. coli was grown on a standard 5 cm agar plate (made with standard Nematode Growth Medium). The bacterial lawn was 16 mm in diameter and was grown overnight at 20° C. before being used in trials. Two 4 mm spots (0.6 μL) were placed on opposite sides of the bacterial lawn (using a transparent template to guide spot placement), and several minutes elapsed for the liquid to settle in before placing nematodes down on the assay. Recording began immediately upon worm placement. 0.6 μL of the control was placed on one side of the lawn, and 0.6 μL of the experimental cue was placed on the other side of the lawn, changing the location of the cue throughout trials between left/right and top/bottom to avoid bias.
Nematodes were isolated by gender at the L4 stage the day before being used in trials as developed adults. Worms were evenly divided and placed at two points equidistant from the foci of the scoring region. Trials were recorded for 20 minutes, and frames were collected for analysis at 1 frame per second. Results were averaged from at least three different trials. For every nematode species in this study, a different total number of worms (using water in both scoring regions) was tested to determine the minimum number of worms necessary for consistent unbiased results over a 20 minute trial. The total number of worms used in the multiple species assays depended on that species' optimal parameters. 10 worms were used for P. redivivus males and females, 20 worms were used for C. elegans males and O. dolichuridae males, and 14 worms were used for S. glaseri males. The Automated Software was used to compare worm occupancy in each scoring region over time, and the Chemotaxis Index (Bargmann et al., Cell 74:515-27 (1993), which is hereby incorporated by reference in its entirety) was adapted to score preference or avoidance to each ascaroside.
A video camera attached to the microscope produced a digital video stream, which was then analyzed. The ratio of the time the average worm spent in each region of interest was calculated for every trial. For ease of implementation, all worms in a single experiment were assumed to be roughly the same size. Thus worm pixels were counted instead of whole worms, allowing fractions of a worm in the region of interest to be taken into account. It also eliminated the need for a shape-based worm identification algorithm, and allowed each frame to be analyzed independently. A band-pass filter was applied to each frame to eliminate the effect of uneven lighting and also accentuate the worms against the background. The worm was then identified after thresholding the filtered image. Throughout each experiment, the locations and sizes of the regions of interest were known. Through the filtering described above, it is known which pixels are occupied by worms and which ones are not. Thus, the ratio of worm-pixels to all pixels inside the region of interest can be calculated to produce the worm-occupancy ratio. This calculation was done for every frame, giving a plot output of worm-occupancy ratio vs. time for each region.

Another assay concerns males. Description: Bioassay of HPLC-purified peak. It is filed as in vivo. Conditions: purified peak with retention time of 9.7 minutes. As for the experimental part:
A Thermo Finnigan LCQ Deca XP Max was used with electrospray ionization in positive ion mode in the 50-1000 AMU range. The Thermo Separation spectra HPLC system consisted of a P4000 quaternary pump, an AS 3000 auto sampler, and a UV 6000 diode array detector. The solvents were water with (a) 0.1% formic acid and (b) 90% acetonitrile-10% water with 10 mM ammonium formate. The column temperature was maintained at 60° C. and a solvent flow of 1.0 ml/min. The reversed phase column (PLRP-S Polymeric reversed phase column, 250×4.6 mmid, Varian Inc.) was eluted with a solvent composition starting with 90:10 (a,b) for 2 minutes, followed by a gradient to 5:95 in 20 minutes and an additional 5 minutes at 5:95. Ultraviolet absorption was monitored at 190 and 400 nm. Solvent flow between the ultraviolet detector and mass spectroscopy electrospray interface split 9:1 with a low-volume micro needle P450 splitter valve (Upchurch Scientific, Oak Harbor, Wash.), making it possible to obtain spectra of eluted compounds and simultaneously collect 90% of the injected material for bioassay. […] This was confirmed to be ascr#1 using NMR analysis.

The subject of the next assay is S. glaseri. Description: Ascaroside function (Table 12), S. glaseri. It is filed as in vivo. On the procedure: as §1
Assay [2] relates to C. elegans. Kind of assay: Ascaroside function (Table 12), C. elegans. In kind it is in vivo, Caenorhabditis elegans. On the set-up: key to Attract Females/Herm. / Promote Dauer Formation / Attract Males: A very strong result of affecting nematode behavior is designated in the table as “strong.”. As for the experimental part:
as §1

For assay [3], the system named is C. elegans hermaphrodites. Kind of assay: Measurement of locomotory parameters (automated worm-tracking system). In kind it is in vivo. On the procedure:
Reversal frequency and velocity were measured using an automated worm-tracking system (Pungaliya et al., PNAS 106:7708-13 (2009); Srinivasan et al., Nature 454:1115-18 (2008), which are hereby incorporated by reference in their entirety).

For assay [4], the system named is C. elegans hermaphrodites. Description: Quadrant chemotaxis assay. It is filed as in vivo. As for the experimental part: Chemotaxis to both non-indole and indole ascarosides was assessed on 10 cm four-quadrant petri plates (Wicks et al., Dev. Biol. 221:295-307 (2000), which is hereby incorporated by reference in its entirety). Each quadrant was separated from adjacent ones by plastic spacers (FIG. 1B). Pairs of opposite quadrants were filled with nematode growth medium (NGM) agar containing either indole ascarosides or non-indole ascarosides at different concentrations. Animals were washed gently in a S-basal buffer, placed in the center of a four-quadrant plate with ascarosides in alternating quadrants, and scored after 15 minutes and 30 minutes. A chemotaxis index was calculated as: (the number of animals on ascaroside quadrants minus the number of animals on buffer quadrants)/(total number of animals).
Chemotaxis to hbas#3 was assessed on 10 cm four-quadrant petri plates (Wicks et al., Dev. Biol. 221:295-307 (2000), which is hereby incorporated by reference in its entirety). Each quadrant was separated from adjacent ones by plastic spacers. Pairs of opposite quadrants were filled with nematode growth medium (NGM) agar containing different concentrations of hbas#3. Animals were washed gently in an S-basal buffer and placed in the center of a four-quadrant plate with ascarosides in alternating quadrants, and scored after 15 minutes and 30 minutes. A chemotaxis index was calculated as: (the number of animals on ascaroside quadrants minus the number of animals on buffer quadrants)/(total number of animals).

The test system of another assay is AIA interneurons. Description: Calcium imaging (G-CaMP), AIA. In kind it is in vivo, C. elegans. Conditions: 1 μM icas#3. An excerpt: (§2) Transgenic lines that express the genetically encoded Ca^2+ sensor in ASK (kyEx2866) and AIA (kyEx2916) (Macosko et al., Nature 458:1171-75 (2009), which is hereby incorporated by reference in its entirety) were used for calcium imaging. Young adults or adult worms were inserted into an “Olfactory chip” microfluidic device (Chronis et al., Nat. Methods 4:727-31 (2007), which is hereby incorporated by reference in its entirety). Dilutions of icas#3 were done with S-basal buffer (with no cholesterol). As stock solutions of icas#3 contained small amounts of ethanol, equivalent amounts of ethanol were added to the S-basal control flow.
(§3) Imaging was conducted using an inverted Zeiss microscope equipped with an Andor camera. Exposure time for image acquisition was 300 milliseconds. Before imaging the ASK neuron, the worm was exposed to blue light for 3 minutes as ASK responds to the blue light itself. […] Movies were analyzed using custom-made Matlab scripts. The first peak of fluorescence immediately after exposure to buffer or icas#3 was chosen for calculating the average change in fluorescence upon exposure to either buffer or icas#3. The value for this maximum was then subtracted from the mean fluorescence during the 5 seconds before the delivery of icas#3/buffer (corresponding to the region between 5 to 10 seconds in FIG. 2D).

Another assay has as its system ASK neurons. Description: Calcium imaging (G-CaMP), ASK. It is filed as in vivo, C. elegans. Conditions: 1 pM to 1 μM.
Text: as §2, §3

Assay [5] concerns C. elegans hermaphrodites and males. Description: Spot attraction assay. It is filed as in vivo. On the procedure:
The spot attraction assays were conducted according to a previously reported method (Pungaliya et al., PNAS 106:7708-13 (2009); Srinivasan et al., Nature 454:1115-18 (2008), which are hereby incorporated by reference in their entirety). For both C. elegans hermaphrodites and males, 50-60 worms were harvested daily at the fourth larval stage (L4) and stored segregatedly by sex at 20° C. overnight, to be used as young adults the following day. For the competition experiments, two conditions were used: 120 nM ascr#3 and 10 nM icas#3 (Condition 1), or 12 μM ascr#3 and 1 μM icas#3 (Condition 2) in water containing 10% ethanol. Aliquots were stored at −20° C. in 20 μL tubes. 10% ethanol in water was used as control.
Attraction assays with hbas#3 were conducted as previously reported (Srinivasan et al., Nature 454:1115-18 (2008); Pungaliya et al., Proc. Natl. Acad. Sci. U.S.A. 106:7708-13 (2009), which are hereby incorporated by reference in their entirety). For the attraction assays, 50-60 hermaphrodite worms were harvested daily at the early fourth larval stage (L4) and stored at 20° C. overnight to be used as young adults the following day. Hbas#3 was dissolved in water containing 10% ethanol. Aliquots were stored at −20° C. in 20 μL tubes. 10% ethanol in water was used as control.

In assay [6] the test system is C. elegans. Kind of assay: Aggregation assay. It is filed as in vivo. As for the experimental part: Aggregation behavior of worms was measured using assays reported in de Bono & Bargmann, Cell 94:679-89 (1998), which is hereby incorporated by reference in its entirety. Aggregation assays were conducted on standard NGM plates. Plates containing indole ascarosides were made by adding the indole ascaroside stock solution to the NGM media before they were poured onto the plates. These plates were dried at room temperature for 2 to 3 days. Control plates were treated similarly, except that ethanol solutions instead of icas solutions were added to the plates, corresponding to the amount of ethanol introduced via the icas solutions. Final ethanol concentrations of the plates were below 0.1% for all conditions. After drying, both control plates and plates containing indole ascarosides were seeded with 150 μl of an overnight culture of E. coli OP50 using a micropipette, and were allowed to dry for 2 days at room temperature. For “low worm density” experiments, 20 worms were placed onto the lawn and left at 20° C. for 3 hours. For “high worm density” experiments, approximately 120 worms were placed onto the bacterial lawn and left at 20° C. for 3 hours. Aggregation behavior was quantified as the number of animals that were in touch with two or more animals at greater than 50% of their body length.

Entries after “also recorded” stand apart in the source; their conditions may differ.

Consider `C[C@H](CCCCC(=O)O)O[C@@H]1O[C@@H](C)[C@H](O)C[C@H]1O` [ascr#1], for which the “Attract Males” value in the assay with Panagrellus redivivus, with S. glaseri and in the assay on C. elegans [2] was “ascr#1” in each case. In assay [1], the “preference for areas conditioned by ascaroside” value was “preferred”. Moreover, the “activity to males in the bioassay” value in the assay with males is reported as “active”. In addition, the “Promote Dauer Formation” value with C. elegans [2] is listed as “ascr#1”.
On to `C[C@H](CCCC/C=C/C(=O)O)O[C@@H]1O[C@@H](C)[C@H](OC(=O)c2c[nH]c3ccccc23)C[C@H]1O` [icas#3], for which the worm velocity entry in [3] (1-10 pM icas#3) was “not significantly reduced”. Moreover, the mean stopped duration entry in assay [3] (aggregation-inducing concentrations, N2 hermaphrodites) is “strongly increase”. In [3] (in vivo), the “forward velocity of ASK-ablated hermaphrodites” value is on record as “do not display reduced forward velocity” and the “reversal frequency of ASK-ablated hermaphrodites” value is “does not increase; also recorded: neither increased reversal frequency”. Moreover, in assay [4] (1 pM icas#3, after 15 minutes), the “chemotaxis of hermaphrodites from all tested strains” value was “attracted”. In assay [4] (1 μM icas#3, after 30 minutes), the “chemotaxis of hermaphrodites from all tested strains” value was “attracted”. In assay [4] (in vivo), the “attraction of social wild-type (RC301, CB4856) and npr-1(ad609) hermaphrodites” value is recorded as “strongly attracted”; the “response of daf-22 hermaphrodites” value is “as strongly as N2 worms”. The “concentration resulting in strong attraction of hermaphrodites (as low as)” value in assay [4] (presence and absence of food) is recorded as ≤ 1 pM. Besides, the “G-CaMP fluorescence in AIA interneurons” value in the assay on AIA interneurons is given as “induces G-CaMP fluorescence signals; also recorded: significantly increased; also recorded: significant changes”. For the same compound, the “Ca2+ transients in ASK neurons” value in the assay with ASK neurons is reported as “no detection”. Also, the “attraction after ablation of the RMG interneuron” value in assay [5] (N2 (wild-type) and ncs-1::gfp hermaphrodites) is “does not affect; also recorded: did not affect”. For the same compound, the “attraction after ablation of ASK sensory neurons” value in assay [5] (hermaphrodites) is on record as “near complete loss of attraction”. Further, the “attraction of both C. elegans sexes” value in assay [5] (high concentrations, 1 μmol, N2 hermaphrodites and him-5 males) is given as “attractive; also recorded: attracted”. In addition, in [5] (in vivo), the “attraction of AIA-deficient worms” value is given as “did not show any attraction”; the “attraction of daf-22 hermaphrodites” value is listed as “attracted; also recorded: as strongly as N2 worms”; the “attraction of social wild-type (RC301, CB4856) and npr-1(ad609) hermaphrodites” value is “attracted; also recorded: strongly attracted”. Further, the attraction of hermaphrodites entry in assay [5] (low concentrations, N2 hermaphrodites) was “strongly attractive”. Also, in the assay with C. elegans [6] (1 pM icas#3, low worm density), the “aggregation of daf-22 hermaphrodites versus N2” value was “less aggregation than N2 worms”. The “aggregation of CB4856” value in the assay with C. elegans [6] (1 nM icas#3, low worm density) is listed as “not significantly different from the control”. Besides, the “aggregation of npr-1(ad609) hermaphrodites” value with C. elegans [6] (entire tested concentration range, without drop off, low worm density) is on record as “increased aggregation”. In the assay with C. elegans [6] (in vivo), the “active concentration window (hermaphrodite attraction and aggregation)” value is given as “fM-pM; also recorded: femtomolar to low picomolar”. The “concentration giving very strong increase in aggregation (as low as)” value in the assay with C. elegans [6] (low worm density (20 worms per plate), solitary and social hermaphrodites) was ≤ 10 fM. For the same compound, in the assay on C. elegans [6] (low worm density, any of the tested concentrations), the “aggregation of ASK-ablated hermaphrodites” value is on record as “do not aggregate; also recorded: did not aggregate”. For the same compound, in the assay with C. elegans [6] (low worm density, bell-shaped response curve), the “concentration of maximal aggregation, social strain CB4856” value turned out to be 1 pM. In addition, the “aggregation of him-5 males” value in the assay on C. elegans [6] (plates containing 100 fM or 100 pM of icas#3) is reported as “significantly increased”. In addition, in the assay on C. elegans [2], the “Attract Females/Herm.” value was “([strong])” and the “Attract Males” value was “([strong])”.
